Reference: ChEMBL document CHEMBL4330100, “Selective estrogen receptor degraders with novel structural motifs induce regression in a tamoxifen-resistant breast cancer xenograft” (Bioorg Med Chem Lett, 2019)

Experiments:
[1] = biological target: T1, Estrogen receptor (Homo sapiens) (UniProt P03372); test: Induction of ERalpha degradation in human MCF7 cells in phenol red free RPMI medium containing 5% charcoal-stripped FBS incubated for 4 hrs by IRDye 800CW/DRAQ5 dye based in-cell Western assay relative to fulvestrant
T1 sequence (whole entry): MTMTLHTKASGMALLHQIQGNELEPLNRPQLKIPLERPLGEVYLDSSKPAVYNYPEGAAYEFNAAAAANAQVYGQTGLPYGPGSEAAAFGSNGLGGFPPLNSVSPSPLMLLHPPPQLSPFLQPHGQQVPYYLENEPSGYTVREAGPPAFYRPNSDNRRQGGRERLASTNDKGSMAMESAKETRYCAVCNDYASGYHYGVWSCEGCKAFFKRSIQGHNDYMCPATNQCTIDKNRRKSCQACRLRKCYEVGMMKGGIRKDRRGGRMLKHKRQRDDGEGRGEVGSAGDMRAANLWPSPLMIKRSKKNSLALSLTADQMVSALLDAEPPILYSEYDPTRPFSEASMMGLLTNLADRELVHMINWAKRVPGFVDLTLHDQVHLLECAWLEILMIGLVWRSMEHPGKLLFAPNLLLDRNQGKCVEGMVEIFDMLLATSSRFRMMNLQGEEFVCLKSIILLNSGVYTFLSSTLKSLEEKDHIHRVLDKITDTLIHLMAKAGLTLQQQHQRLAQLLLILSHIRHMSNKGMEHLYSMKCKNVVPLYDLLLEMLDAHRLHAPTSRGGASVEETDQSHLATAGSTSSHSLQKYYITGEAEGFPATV

Estrogen receptor = biological target: T2, Estrogen receptor (Homo sapiens, UniProt P03372); test: Induction of ERalpha degradation in human MCF7 cells in phenol red free RPMI medium containing 5% charcoal-stripped FBS incubated for 4 hrs by IRDye 800CW/DRAQ5 dye based in-cell Western assay
T2 sequence (P03372 whole entry): T1 sequence (whole entry)

MCF7 = test: Antiproliferative activity against human MCF7 cells assessed as reduction in cell proliferation measured after 5 days by Cell-titer-Glo assay; format: functional, cell-based; settings: MCF7, 120 h
Rattus norvegicus [2] = test: In vivo antagonist activity at estrogen receptor in CD-IGS rat assessed as reduction in 17alpha-ethynylestradiol-stimulated increase in uterine wet weight at 1 mg/kg, po administered daily 15 mins before 17alpha-ethynylestradiol treatment for 3 days and measured 24 hrs post last dose relative to basal level; format: functional
[3] = biological target: T1, Estrogen receptor (Homo sapiens); test: Induction of ERalpha degradation in human MCF7 cells in phenol red free RPMI medium containing 5% charcoal-stripped FBS at 2 to 10 uM incubated for 4 hrs by IRDye 800CW/DRAQ5 dye based in-cell Western assay relative to fulvestrant
Rattus norvegicus [4] = test: In vivo antagonist activity at estrogen receptor in CD-IGS rat assessed as inhibition of estrogen-stimulated uterine growth at 1 mg/kg, po administered daily 15 mins before estrogen treatment for 3 days and measured 24 hrs post last dose relative to ARN-180; format: functional

Row | SMILES | Efficacy [1] [%] | EC50 (Estrogen receptor) [µM] | IC50 (MCF7) [µM] | Efficacy (Rattus norvegicus [2]) [%] | Efficacy [3] [%] | Efficacy (Rattus norvegicus [4]) [%]
1 | CC/C(=C(/c1ccc(/C=C/C(=O)O)cc1)c1ccc(-c2cncs2)cc1)c1ccccc1 | 90 | 0.0074 | 0.031 | – | – | –
2 | O=C(O)/C=C/c1ccc(/C(=C(\c2ccc(F)cc2Cl)C2CCC2)c2ccc3nccn3c2)cc1 | – | 0.0015 | 0.0044 | 90 | – | –
3 | CC/C(=C(/c1ccc(/C=C/C(=O)O)cc1)c1ccc(-n2ccnc2)cc1)c1ccccc1 | – | 0.3 | 0.38 | – | 89 | –
4 | O=C(O)/C=C/c1ccc(/C(=C(\c2ccc(C(F)(F)F)cc2Cl)C2CCC2)c2ccc3nccn3c2)cc1 | 94 | 0.0015 | 0.0051 | – | – | –
5 | CC/C(=C(/c1ccc(/C=C/C(=O)O)cc1)c1ccc(N2CCN(C)CC2)cc1)c1ccccc1 | – | 0.09 | 0.22 | – | 85 | –
6 | N#Cc1ccc(/C(=C(\c2ccc(/C=C/C(=O)O)cc2)c2ccc3nccn3c2)C2CCC2)c(Cl)c1 | 93 | 0.019 | 0.015 | – | – | –
7 | O=C(O)/C=C/c1ccc(/C(=C(\c2ccccc2)C2CCC2)c2ccc(-c3cncs3)cc2)cc1 | – | 0.0017 | 0.0092 | 89 | – | –
8 | CC/C(=C(/c1ccc(/C=C/C(=O)O)cc1)c1ccc2ccccc2c1)c1ccccc1 | – | 0.057 | 0.18 | – | 91 | –
9 | N#Cc1cc(Cl)ccc1/C(=C(\c1ccc(/C=C/C(=O)O)cc1)c1ccc2scnc2c1)C1CCC1 | – | 0.0004 | 0.0009 | – | – | 91
10 | CC/C(=C(/c1ccc(/C=C/C(=O)O)cc1)c1ccc2nnnn2c1)c1ccccc1 | – | > 0.5 | > 0.5 | – | – | –
11 | CC/C(=C(/c1ccc(/C=C/C(=O)O)cc1)c1ccn2nncc2c1)c1ccccc1 | – | 0.34 | > 0.5 | – | 86 | –
12 | N#Cc1ccc(/C(=C(\c2ccc(/C=C/C(=O)O)cc2)c2ccc3scnc3c2)C2CCC2)c(Cl)c1 | – | 0.0008 | 0.0014 | – | – | 92
13 | O=C(O)/C=C/c1ccc(/C(=C(\c2ccc(C(F)(F)F)cc2Cl)C2CCC2)c2ccc(N3CCOCC3)cc2)cc1 | – | 0.0019 | 0.0069 | 93 | – | –
14 | N#Cc1ccc(/C(=C(\c2ccc(/C=C/C(=O)O)cc2)c2ccc(-c3cn[nH]c3)cc2)C2CCC2)c(Cl)c1 | – | 0.0007 | 0.0022 | 94 | – | –
15 | CC/C(=C(/c1ccc(/C=C/C(=O)O)cc1)c1ccc(-c2cnco2)cc1)c1ccccc1 | 92 | 0.017 | 0.051 | – | – | –
16 | CC/C(=C(/c1ccc(/C=C/C(=O)O)cc1)c1ccc2sc(C)nc2c1)c1ccccc1 | – | 0.15 | > 0.5 | – | 88 | –
17 | O=C(O)/C=C/c1ccc(/C(=C(\c2ccccc2)C2CCC2)c2ccc(-c3cn[nH]c3)cc2)cc1 | 90 | 0.0021 | 0.011 | – | – | –
18 | CC/C(=C(/c1ccc(/C=C/C(=O)O)cc1)c1ccc2c(cnn2C)c1)c1ccccc1 | – | 0.14 | 0.3 | – | 84 | –
19 | CC/C(=C(/c1ccc(/C=C/C(=O)O)cc1)c1ccc(N2CCCCC2)cc1)c1ccccc1 | – | 0.19 | 0.45 | – | 90 | –
20 | CC/C(=C(/c1ccc(/C=C/C(=O)O)cc1)c1ccc2nccn2c1)c1ccccc1 | – | 0.075 | 0.17 | – | 86 | –
21 | O=C(O)/C=C/c1ccc(/C(=C(\c2ncc(C(F)(F)F)cc2Cl)C2CCC2)c2ccc(N3CCOCC3)cc2)cc1 | 92 | 0.0041 | 0.02 | – | – | –
22 | O=C(O)/C=C/c1ccc(/C(=C(\c2ccccc2)C2CCC2)c2ccc3scnc3c2)cc1 | 88 | 0.0059 | 0.016 | – | – | –
23 | CC/C(=C(/c1ccc(/C=C/C(=O)O)cc1)c1ccc2ncsc2c1)c1ccccc1 | – | 0.24 | > 0.5 | – | 86 | –
24 | CC/C(=C(/c1ccc(/C=C/C(=O)O)cc1)c1ccc(N2CCOCC2)cc1)c1ccccc1 | 91 | 0.05 | 0.094 | – | – | –
25 | CC/C(=C(/c1ccc(/C=C/C(=O)O)cc1)c1ccc2nncn2c1)c1ccccc1 | – | > 0.5 | > 0.5 | – | – | –
26 | CC/C(=C(/c1ccc(/C=C/C(=O)O)cc1)c1ccn2nccc2c1)c1ccccc1 | – | 0.35 | > 0.5 | – | 90 | –

Row | SMILES | Efficacy [1] [%] | EC50 (Estrogen receptor) [µM] | IC50 (MCF7) [µM] | Efficacy (Rattus norvegicus [2]) [%] | Efficacy [3] [%] | Efficacy (Rattus norvegicus [4]) [%]
27 | CC/C(=C(/c1ccc(/C=C/C(=O)O)cc1)c1ccc2sncc2c1)c1ccccc1 | – | 0.2 | > 0.5 | – | 90 | –
28 | O=C(O)/C=C/c1ccc(/C(=C(\c2ncc(C(F)(F)F)cc2Cl)C2CCC2)c2ccc(-c3cncs3)cc2)cc1 | 93 | 0.0014 | 0.0073 | – | – | –
29 | CC/C(=C(/c1ccc(/C=C/C(=O)O)cc1)c1ccc2cncn2c1)c1ccccc1 | – | 0.26 | > 0.5 | – | 86 | –
30 | CC/C(=C(/c1ccc(/C=C/C(=O)O)cc1)c1ccc(-c2cc[nH]n2)cc1)c1ccccc1 | – | 0.099 | 0.44 | – | 86 | –
31 | CC/C(=C(\c1ccc(O)cc1)c1ccc(/C=C/C(=O)O)cc1)c1ccccc1 | – | – | 0.0046 | – | – | –
32 | CC/C(=C(/c1ccc(/C=C/C(=O)O)cc1)c1ccc2scnc2c1)c1ccccc1 | 89 | 0.022 | 0.09 | – | – | –
33 | CC/C(=C(/c1ccc(/C=C/C(=O)O)cc1)c1ccn2ccnc2c1)c1ccccc1 | – | > 0.5 | > 0.5 | – | – | –
34 | O=C(O)/C=C/c1ccc(/C(=C(\c2ccc(F)cc2Cl)C2CCC2)c2ccc(-c3cn[nH]c3)cc2)cc1 | – | 0.0011 | 0.0029 | – | – | 91
35 | O=C(O)/C=C/c1ccc(/C(=C(\c2ccc(F)cc2Cl)C2CCC2)c2ccc(-c3cncs3)cc2)cc1 | – | 0.0008 | 0.0042 | – | – | 91
36 | N#Cc1cc(Cl)ccc1/C(=C(\c1ccc(/C=C/C(=O)O)cc1)c1ccc(N2CCOCC2)cc1)C1CCC1 | 92 | 0.005 | 0.012 | – | – | –
37 | N#Cc1cc(Cl)ccc1/C(=C(\c1ccc(/C=C/C(=O)O)cc1)c1ccc2nccn2c1)C1CCC1 | 93 | 0.0043 | 0.0059 | – | – | –
38 | O=C(O)/C=C/c1ccc(/C(=C(\c2ccc(C(F)(F)F)cc2Cl)C2CCC2)c2ccc(-c3cn[nH]c3)cc2)cc1 | 93 | 0.0048 | 0.016 | – | – | –
39 | O=C(O)/C=C/c1ccc(/C(=C(\c2ncc(C(F)(F)F)cc2Cl)C2CCC2)c2ccc(-c3cn[nH]c3)cc2)cc1 | 93 | 0.0028 | 0.016 | – | – | –
40 | CC/C(=C(/c1ccc(/C=C/C(=O)O)cc1)c1ccc(-c2cnn(C)c2)cc1)c1ccccc1 | 92 | 0.015 | 0.08 | – | – | –
41 | CC/C(=C(/c1ccc(/C=C/C(=O)O)cc1)c1ccc2c(cnn2C)c1)c1ccc(F)cc1Cl | 86 | 0.027 | 0.081 | – | – | –
42 | O=C(O)/C=C/c1ccc(/C(=C(\c2ccc(F)cc2Cl)C2CCC2)c2ccc(N3CCOCC3)cc2)cc1 | – | 0.0016 | 0.005 | – | – | 90
43 | CC/C(=C(/c1ccc(/C=C/C(=O)O)cc1)c1ccc2ocnc2c1)c1ccccc1 | – | 0.46 | > 0.5 | – | 86 | –
44 | CC/C(=C(/c1ccc(/C=C/C(=O)O)cc1)c1ccc(-c2cscn2)cc1)c1ccccc1 | 90 | 0.037 | 0.12 | – | – | –
45 | O=C(O)/C=C/c1ccc(/C(=C(\c2ccc(F)cc2Cl)C2CCC2)c2ccc3scnc3c2)cc1 | – | 0.0007 | 0.003 | – | – | 91
46 | N#Cc1ccc(/C(=C(\c2ccc(/C=C/C(=O)O)cc2)c2ccc(N3CCOCC3)cc2)C2CCC2)c(Cl)c1 | 92 | 0.0042 | 0.0075 | – | – | –
47 | N#Cc1ccc(/C(=C(\c2ccc(/C=C/C(=O)O)cc2)c2ccc(-c3cncs3)cc2)C2CCC2)c(Cl)c1 | 94 | 0.0018 | 0.0029 | – | – | –
48 | CC/C(=C(/c1ccc(/C=C/C(=O)O)cc1)c1ccc(-c2cnsc2)cc1)c1ccccc1 | 89 | 0.028 | 0.12 | – | – | –
49 | O=C(O)/C=C/c1ccc(/C(=C(\c2ncc(C(F)(F)F)cc2Cl)C2CCC2)c2ccc3scnc3c2)cc1 | – | 0.0011 | 0.0029 | – | – | 92
50 | CC/C(=C(/c1ccc(/C=C/C(=O)O)cc1)c1ccc(-c2cn[nH]c2)cc1)c1ccccc1 | 91 | 0.012 | 0.04 | – | – | –
51 | CC/C(=C(/c1ccc(/C=C/C(=O)O)cc1)c1ccc(-c2nccs2)cc1)c1ccccc1 | – | 0.083 | 0.29 | – | 91 | –
52 | CC/C(=C(\c1ccccc1)c1ccc(/C=C/C(=O)O)cc1)c1ccccc1 | – | – | – | – | 85 | –
